Data from PubChem BioAssay (NCI).
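Growth conditions: 96-well plates. Treatment: test compound, 48 hours, 5 concentrations. Analysis: linear interpolation between bracketing concentrations; unreached endpoints set to highest concentration. At the TGI there is no net growth.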

How the values were obtained:
Assay in all cases: NCI anticancer screen, dose series, 48 h
786-0 renal = system: 786-0 renal
A498 renal = system: A498 renal
A549 NSCLC = system: A549 NSCLC
CAKI-1 renal = system: CAKI-1 renal
CCRF-CEM leukemia = system: CCRF-CEM leukemia
COLO 205 colon = system: COLO 205 colon
DU-145 prostate = system: DU-145 prostate
EKVX NSCLC = system: EKVX NSCLC
HCC-2998 colon = system: HCC-2998 colon
HCT-116 colon = system: HCT-116 colon
HCT-15 colon = system: HCT-15 colon
HL-60(TB) leukemia = system: HL-60(TB) leukemia
HOP-62 NSCLC = system: HOP-62 NSCLC
HOP-92 NSCLC = system: HOP-92 NSCLC
HT29 colon = system: HT29 colon
IGROV1 ovarian = system: IGROV1 ovarian
K-562 leukemia = system: K-562 leukemia
KM12 colon = system: KM12 colon
M14 melanoma = system: M14 melanoma
MALME-3M melanoma = system: MALME-3M melanoma
MCF7 breast = system: MCF7 breast
MDA-MB-231 breast = system: MDA-MB-231 breast
MDA-N = system: MDA-N
NCI-H23 lung = system: NCI-H23 lung
NCI-H460 lung = system: NCI-H460 lung
NCI/ADR-RES ovarian = system: NCI/ADR-RES ovarian
OVCAR-3 ovarian = system: OVCAR-3 ovarian
OVCAR-4 ovarian = system: OVCAR-4 ovarian
OVCAR-5 ovarian = system: OVCAR-5 ovarian
OVCAR-8 ovarian = system: OVCAR-8 ovarian
PC-3 prostate = system: PC-3 prostate
RPMI-8226 leukemia = system: RPMI-8226 leukemia
RXF 393 renal = system: RXF 393 renal
SF-268 CNS = system: SF-268 CNS
SF-295 CNS = system: SF-295 CNS
SF-539 CNS = system: SF-539 CNS
SK-MEL-28 melanoma = system: SK-MEL-28 melanoma
SK-MEL-5 melanoma = system: SK-MEL-5 melanoma
SNB-19 CNS = system: SNB-19 CNS
SNB-75 CNS = system: SNB-75 CNS
SR leukemia = system: SR leukemia
SW-620 colon = system: SW-620 colon
T-47D breast = system: T-47D breast
TK-10 renal = system: TK-10 renal
U251 CNS = system: U251 CNS
UACC-257 melanoma = system: UACC-257 melanoma
UACC-62 melanoma = system: UACC-62 melanoma
UO-31 renal = system: UO-31 renal
ACHN renal = system: ACHN renal
MDA-MB-435 = system: MDA-MB-435
MOLT-4 leukemia = system: MOLT-4 leukemia
NCI-H226 lung = system: NCI-H226 lung
SK-MEL-2 melanoma = system: SK-MEL-2 melanoma
SK-OV-3 ovarian = system: SK-OV-3 ovarian

`O=C1C(=O)c2c(O)ccc(O)c2C(O)=C1Cl` gave a TGI (786-0 renal) of over 100 µM, a TGI (A498 renal) of over 100 µM and a TGI (A549 NSCLC) of over 100000 nM. It also gave a TGI (CAKI-1 renal) of over 100000 nM, a TGI (CCRF-CEM leukemia) of over 100 µM and a TGI (COLO 205 colon) of over 100000 nM. The TGI (DU-145 prostate) was over 100000 nM, the TGI (EKVX NSCLC) was over 100000 nM and the TGI (HCC-2998 colon) was over 100000 nM. The TGI (HCT-116 colon) was over 100 µM, the TGI (HCT-15 colon) was over 100 µM and the TGI (HL-60(TB) leukemia) was over 100 µM. The TGI (HOP-62 NSCLC) was over 100000 nM, the TGI (HOP-92 NSCLC) was over 100 µM and the TGI (HT29 colon) was over 100 µM. For the same compound, the TGI (IGROV1 ovarian) was over 100 µM, the TGI (K-562 leukemia) was over 100 µM and the TGI (KM12 colon) was over 100000 nM. The TGI (M14 melanoma) was over 100 µM, the TGI (MALME-3M melanoma) was 78.3 µM and the TGI (MCF7 breast) was over 100 µM. It also gave a TGI (MDA-MB-231 breast) of over 100 µM, a TGI (MDA-N) of over 100000 nM and a TGI (NCI-H23 lung) of over 100 µM. For the same compound, the TGI (NCI-H460 lung) was over 100000 nM, the TGI (NCI/ADR-RES ovarian) was over 100 µM and the TGI (OVCAR-3 ovarian) was over 100000 nM. The TGI (OVCAR-4 ovarian) was over 100000 nM, the TGI (OVCAR-5 ovarian) was over 100000 nM and the TGI (OVCAR-8 ovarian) was over 100 µM. It also gave a TGI (PC-3 prostate) of over 100000 nM, a TGI (RPMI-8226 leukemia) of over 100000 nM and a TGI (RXF 393 renal) of over 100 µM. It also gave a TGI (SF-268 CNS) of over 100 µM, a TGI (SF-295 CNS) of over 100000 nM and a TGI (SF-539 CNS) of over 100000 nM. For the same compound, the TGI (SK-MEL-28 melanoma) was over 100000 nM, the TGI (SK-MEL-5 melanoma) was over 100000 nM and the TGI (SNB-19 CNS) was over 100000 nM. For the same compound, the TGI (SNB-75 CNS) was over 100 µM, the TGI (SR leukemia) was over 100 µM and the TGI (SW-620 colon) was over 100000 nM. It also gave a TGI (T-47D breast) of over 100000 nM, a TGI (TK-10 renal) of over 100 µM and a TGI (U251 CNS) of over 100000 nM. The TGI (UACC-257 melanoma) was over 100000 nM, the TGI (UACC-62 melanoma) was over 100 µM and the TGI (UO-31 renal) was over 100 µM.
`CN(C)c1ccc(/C=c2/c3ccccc3n3c2cc(-c2ccc(Cl)cc2)[n+]3C)cc1` gave a TGI (A498 renal) of 3.45 µM, a TGI (A549 NSCLC) of 1870 nM and a TGI (ACHN renal) of 1460 nM. It also gave a TGI (CAKI-1 renal) of 782 nM, a TGI (COLO 205 colon) of 211 nM and a TGI (DU-145 prostate) of 1130 nM. For the same compound, the TGI (EKVX NSCLC) was 2410 nM, the TGI (HCC-2998 colon) was 1950 nM and the TGI (HOP-62 NSCLC) was 1480 nM. The TGI (KM12 colon) was 264 nM, the TGI (MDA-MB-435) was 1180 nM and the TGI (MDA-N) was 1230 nM. The TGI (MOLT-4 leukemia) was over 100 µM, the TGI (NCI-H226 lung) was 1680 nM and the TGI (NCI-H460 lung) was 656 nM. It also gave a TGI (NCI/ADR-RES ovarian) of over 89.3 µM, a TGI (OVCAR-3 ovarian) of 1340 nM and a TGI (OVCAR-4 ovarian) of 2510 nM. It also gave a TGI (OVCAR-5 ovarian) of 2330 nM, a TGI (PC-3 prostate) of 1010 nM and a TGI (RPMI-8226 leukemia) of 566 nM. The TGI (SF-295 CNS) was 1770 nM, the TGI (SF-539 CNS) was 748 nM and the TGI (SK-MEL-2 melanoma) was 845 nM. For the same compound, the TGI (SK-MEL-28 melanoma) was 1900 nM, the TGI (SK-MEL-5 melanoma) was 362 nM and the TGI (SK-OV-3 ovarian) was 1450 nM. For the same compound, the TGI (SNB-19 CNS) was 1330 nM, the TGI (SW-620 colon) was 1310 nM and the TGI (T-47D breast) was 1380 nM. For the same compound, the TGI (U251 CNS) was 1090 nM and the TGI (UACC-257 melanoma) was 1080 nM.
